In patent US20250288561A1, “NEZULCITINIB FOR DELIVERY BY NEBULIZED ORAL INHALATION” (THERAVANCE BIOPHARMA R&D IP, LLC, priority 2022, published 2025):

Legend:
[1] = biological target: TYK2 (Homo sapiens, UniProt P29597); assay: JAK enzyme inhibition; format: biochemical
[2] = Phase 2 clinical study in subjects infected with COVID: safety; format: in vivo, human
From the text: Compound 1 was well-tolerated. Adverse events and serious adverse events occurred in 34.0% and 9.7% of subjects treated with compound 1, and 41.2% and 15.7% of subjects treated with placebo, respectively. Adverse events of liver abnormalities or disease occurred in 9.7% and 7.8% of subjects treated with compound 1 and placebo, respectively. Serious infections and venous thromboembolism occurred in 1.0% and none of the subjects treated with compound 1, and 2.0% and 4.9% in subjects treated with placebo, respectively.

[3] = Sulfation metabolism; format: in vitro ADME
[4] = tested on: subjects infected with COVID; assay: Phase 2 clinical study in subjects infected with COVID: efficacy; format: in vivo, human; details: for time to recovery, median: vs placebo 11; for 28-day all-cause mortality, HR / time to recovery, HR: vs placebo
Procedure: Compound 1 has been studied in a phase 2 clinical study in subjects infected with COVID.
Importantly, in a post-hoc analysis of subjects with baseline CRP (n=201), in subjects with CRP <150 mg/L (n=171), there was an improvement in those treated with compound 1 when compared to placebo in: • 28-day all-cause mortality (total number of deaths: 1 vs 9, HR: 0.097, p=0.009). • time to recovery (median: 10 vs. 11 days, HR: 1.48, p=0.02).
In subjects with CRP >150 mg/L (n=30), there was no difference in time to recovery or 28-day all-cause mortality between those treated with compound 1 or placebo.

[5] = Phase 1 open-label study: safety and tolerability of single inhaled nezulcitinib doses under supplemental oxygenation scenarios; format: in vivo, human
From the text: Part B: assessed the safety and tolerability of nezulcitinib following single inhaled doses administered in the setting of various supplemental oxygenation scenarios in healthy participants.
Safety was monitored through physical examinations including, at a minimum, examination of respiratory, cardiovascular, and gastrointestinal systems, with the option for further focused examination of additional systems as necessary based on reported symptoms/AEs, vital signs, 12-lead safety ECGs, spirometry, body weight monitoring, pulse oximetry, clinical laboratory tests (including, but not limited to, hematology, clinical chemistry profile, coagulation, and urinalysis), and AEs.
AEs were coded using the most current version of Medical Dictionary for Regulatory Activities (MedDRA®).
Summaries of administration-emergent adverse events (AEAEs) were presented by SOC, preferred term, and the frequency and percentage of participants reporting each observed event. The frequency of participants who experience AEAEs was summarized overall and by study part and administration. AEs were also summarized by relationship to administration (study drug) and severity.
All clinical laboratory results, 12-lead safety ECGs, spirometry measurements, pulse oximetry, vital signs measurements, and their change from baseline, were summarized by study part, administration, and time point of collection.
Safety (i.e., physical examinations, vital signs, 12-lead safety ECGs, spirometry, clinical laboratory tests, and AEs) were assessed throughout the study; blood, urine, and expired air samples were collected for safety assessments. Blood oxygenation levels were monitored via pulse oximetry prior to and during administration of supplemental oxygen. Discontinued participants were not replaced.

[6] = tested on: IFNγ signaling; assay: Inhibition of cytokine signaling; format: cell-based
[7] = biological target: Abl2 (Homo sapiens, UniProt P42684); assay: Abelson kinase inhibition; format: biochemical
Sequence of Abl2 (P42684 whole entry): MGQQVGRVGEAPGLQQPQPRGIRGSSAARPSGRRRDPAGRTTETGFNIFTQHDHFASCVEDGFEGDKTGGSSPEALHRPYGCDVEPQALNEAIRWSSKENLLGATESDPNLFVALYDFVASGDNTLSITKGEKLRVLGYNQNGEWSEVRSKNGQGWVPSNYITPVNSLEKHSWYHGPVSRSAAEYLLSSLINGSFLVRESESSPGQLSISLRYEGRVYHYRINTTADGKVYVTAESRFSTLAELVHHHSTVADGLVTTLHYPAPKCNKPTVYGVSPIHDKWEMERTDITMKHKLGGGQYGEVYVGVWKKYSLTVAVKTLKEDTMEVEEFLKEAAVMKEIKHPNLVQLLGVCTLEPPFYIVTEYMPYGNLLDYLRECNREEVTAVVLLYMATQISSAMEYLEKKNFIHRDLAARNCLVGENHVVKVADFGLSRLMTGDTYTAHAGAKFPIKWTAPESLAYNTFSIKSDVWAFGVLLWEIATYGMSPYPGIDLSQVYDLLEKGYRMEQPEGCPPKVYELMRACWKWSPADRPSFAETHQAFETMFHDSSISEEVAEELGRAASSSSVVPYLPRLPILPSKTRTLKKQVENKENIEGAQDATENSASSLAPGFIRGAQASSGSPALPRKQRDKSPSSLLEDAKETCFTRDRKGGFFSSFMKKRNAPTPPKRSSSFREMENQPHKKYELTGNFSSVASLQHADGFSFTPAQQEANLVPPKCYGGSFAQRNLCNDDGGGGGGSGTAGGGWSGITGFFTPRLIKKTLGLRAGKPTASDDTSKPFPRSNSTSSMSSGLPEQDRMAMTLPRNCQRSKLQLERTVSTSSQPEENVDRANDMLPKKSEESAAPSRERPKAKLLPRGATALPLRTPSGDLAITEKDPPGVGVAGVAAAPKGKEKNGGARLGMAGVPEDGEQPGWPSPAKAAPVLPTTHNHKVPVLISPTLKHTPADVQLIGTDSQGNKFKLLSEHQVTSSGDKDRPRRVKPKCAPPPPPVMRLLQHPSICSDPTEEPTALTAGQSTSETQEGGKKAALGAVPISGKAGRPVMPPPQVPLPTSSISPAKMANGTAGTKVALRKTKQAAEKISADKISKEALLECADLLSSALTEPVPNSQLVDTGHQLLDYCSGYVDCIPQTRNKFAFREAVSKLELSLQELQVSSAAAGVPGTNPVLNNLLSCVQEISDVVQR

[8] = tested on: IFNγ secretion; assay: Mixed lymphocyte reaction assay; format: cell-based
From the text: The mixed lymphocyte reaction assay is an in-vitro assay that mimics transplant rejection.

[9] = tested on: IL-6 signaling; assay: Inhibition of cytokine signaling; format: cell-based
[10] = tested on: NK cells; assay: Earlier phase 1 clinical trial: absolute NK cell counts after multiple dosing; format: in vivo, human; details: any dose level (1, 3, or 10 mg)
Procedure: Compound 1 was evaluated in a phase 1 clinical trial and dosed in humans through nebulized inhalation at 1 mg, 3 mg, and 10 mg for up to 7 days. […] The pharmacokinetics of inhaled compound 1 are consistent with low plasma exposures after inhaled administration. […] Additionally, absolute NK cell counts were evaluated after multiple-dosing to assess the potential for systemic pharmacologic effects associated with JAK inhibition by compound 1. […] The lack of reduction in NK cell counts is also consistent with the lack of systemic JAK inhibition. […] Other systemically mediated hematological changes associated with JAK inhibition, including neutrophil and hemoglobin reductions as well as lipid changes, were not observed with inhaled administration of compound 1.

[11] = biological target: JAK2 (Homo sapiens, UniProt O60674); assay: JAK enzyme inhibition; format: biochemical
Sequence of JAK2 (O60674 whole entry): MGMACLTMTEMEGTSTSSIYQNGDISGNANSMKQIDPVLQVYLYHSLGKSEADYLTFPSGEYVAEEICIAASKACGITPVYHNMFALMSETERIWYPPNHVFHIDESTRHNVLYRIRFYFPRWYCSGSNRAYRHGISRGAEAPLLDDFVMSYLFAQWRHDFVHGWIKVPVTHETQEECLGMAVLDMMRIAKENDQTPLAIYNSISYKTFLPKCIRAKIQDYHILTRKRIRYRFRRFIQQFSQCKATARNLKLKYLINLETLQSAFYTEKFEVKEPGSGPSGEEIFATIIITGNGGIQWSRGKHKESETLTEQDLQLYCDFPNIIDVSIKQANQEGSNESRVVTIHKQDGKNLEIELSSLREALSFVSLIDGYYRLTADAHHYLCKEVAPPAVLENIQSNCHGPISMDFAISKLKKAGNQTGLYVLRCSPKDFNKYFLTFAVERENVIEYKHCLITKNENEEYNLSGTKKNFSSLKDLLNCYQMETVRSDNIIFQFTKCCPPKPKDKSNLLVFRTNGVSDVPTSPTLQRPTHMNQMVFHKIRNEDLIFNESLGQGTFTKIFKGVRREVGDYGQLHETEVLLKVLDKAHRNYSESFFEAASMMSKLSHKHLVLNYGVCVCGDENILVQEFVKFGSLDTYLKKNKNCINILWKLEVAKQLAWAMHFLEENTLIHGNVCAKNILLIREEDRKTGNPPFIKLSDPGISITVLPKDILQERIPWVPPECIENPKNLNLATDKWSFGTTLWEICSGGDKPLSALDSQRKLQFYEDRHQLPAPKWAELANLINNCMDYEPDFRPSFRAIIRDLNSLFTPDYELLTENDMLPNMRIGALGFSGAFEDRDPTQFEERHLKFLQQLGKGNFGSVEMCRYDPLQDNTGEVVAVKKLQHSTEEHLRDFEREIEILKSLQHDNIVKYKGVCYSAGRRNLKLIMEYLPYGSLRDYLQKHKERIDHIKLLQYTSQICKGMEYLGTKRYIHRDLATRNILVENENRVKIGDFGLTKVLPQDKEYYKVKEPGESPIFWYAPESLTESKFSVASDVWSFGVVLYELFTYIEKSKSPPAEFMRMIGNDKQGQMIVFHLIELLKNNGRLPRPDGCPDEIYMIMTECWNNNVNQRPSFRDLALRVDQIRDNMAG

Sequence of TYK2 (P29597 whole entry): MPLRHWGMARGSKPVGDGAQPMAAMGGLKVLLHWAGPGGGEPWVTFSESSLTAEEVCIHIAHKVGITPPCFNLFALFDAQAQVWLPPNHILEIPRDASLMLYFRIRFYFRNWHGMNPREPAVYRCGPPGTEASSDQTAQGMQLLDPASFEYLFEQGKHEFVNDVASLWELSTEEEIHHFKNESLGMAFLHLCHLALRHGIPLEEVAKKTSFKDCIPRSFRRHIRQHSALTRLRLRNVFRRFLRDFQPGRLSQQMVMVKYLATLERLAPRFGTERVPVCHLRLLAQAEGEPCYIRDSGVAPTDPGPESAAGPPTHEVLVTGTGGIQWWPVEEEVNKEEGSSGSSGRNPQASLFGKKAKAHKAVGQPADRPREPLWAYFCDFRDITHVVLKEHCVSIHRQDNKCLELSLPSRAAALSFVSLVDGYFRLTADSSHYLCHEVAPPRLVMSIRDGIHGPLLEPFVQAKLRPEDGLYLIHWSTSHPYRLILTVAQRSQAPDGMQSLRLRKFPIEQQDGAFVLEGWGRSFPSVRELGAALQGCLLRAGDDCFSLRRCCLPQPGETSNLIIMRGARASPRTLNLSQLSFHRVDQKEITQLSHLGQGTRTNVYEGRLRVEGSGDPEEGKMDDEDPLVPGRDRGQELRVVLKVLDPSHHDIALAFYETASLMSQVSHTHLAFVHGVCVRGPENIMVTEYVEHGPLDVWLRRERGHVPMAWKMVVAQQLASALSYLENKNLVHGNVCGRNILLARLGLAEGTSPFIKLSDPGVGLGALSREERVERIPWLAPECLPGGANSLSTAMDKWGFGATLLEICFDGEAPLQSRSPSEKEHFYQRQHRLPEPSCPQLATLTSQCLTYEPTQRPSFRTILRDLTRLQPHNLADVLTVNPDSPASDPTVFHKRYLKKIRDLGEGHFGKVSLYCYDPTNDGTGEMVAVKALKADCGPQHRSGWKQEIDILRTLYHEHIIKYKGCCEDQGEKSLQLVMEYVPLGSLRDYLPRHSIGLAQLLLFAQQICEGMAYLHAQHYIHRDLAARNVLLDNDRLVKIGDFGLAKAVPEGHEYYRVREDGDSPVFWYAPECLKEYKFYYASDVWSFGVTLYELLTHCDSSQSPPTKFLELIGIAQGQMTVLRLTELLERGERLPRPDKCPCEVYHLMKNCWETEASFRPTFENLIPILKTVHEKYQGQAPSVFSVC

In the case of `CCc1cc(O)ccc1-c1ccc2c(-c3nc4c([nH]3)CN(C(C)C)[C@H](C(=O)N3CC(N(C)C)C3)C4)n[nH]c2c1` [Compound 1, (S)-(3-(dimethylamino)azetidin-1-yl)(2-(6-(2-ethyl-4-hydroxyphenyl)-1H-indazol-3-yl)-5-isopropyl-4,5,6,7-tetrahydro-3H-imidazo[4,5-c]pyridin-6-yl)methanone], the “inhibition of TYK2” value [1] was “potent inhibitor”, the tolerability [2] was “well-tolerated” and the “serious infections, subjects” value ([2]; placebo 2.0%) was 1.0%. The “venous thromboembolism, subjects” value ([2]; placebo 4.9%) was “none”, the “adverse events of liver abnormalities or disease, subjects” value ([2]; placebo 7.8%) was 9.7% and the “serious adverse events, subjects” value ([2]; placebo 15.7%) was 9.7%. The “adverse events, subjects” value ([2]; placebo 41.2%) was 34.0%, the “sulfation metabolism compared to corresponding fluorinated analog” value [3] was “significantly less sulfation metabolism” and the “change from baseline at Day 7 in SaO2/FiO2 ratio, 8-point Clinical Status scale categories, proportion alive and respiratory failure-free at Day 28, vs placebo” value ([4]; ITT) was “no difference”. For the same compound, the “RFDs (respiratory failure-free days) from randomization through Day 28, median” value ([4]; ITT, vs placebo 21, p=0.61) was 21 days, the “time to recovery, median” value ([4]; all subjects) was 10 days and the “28-day all-cause mortality, total number of deaths” value ([4]; all subjects, vs placebo 13) was 6. For the same compound, the “28-day all-cause mortality, HR” value ([4]; all subjects, p=0.08) was 0.42, the “time to recovery, HR” value ([4]; all subjects, p=0.12) was 1.27 and the “time to recovery, median” value ([4]; post-hoc, baseline CRP <150 mg/L) was 10 days. For the same compound, the “28-day all-cause mortality, HR” value ([4]; post-hoc, baseline CRP <150 mg/L, p=0.009) was 0.097, the “time to recovery, HR” value ([4]; post-hoc, baseline CRP <150 mg/L, p=0.02) was 1.48 and the “28-day all-cause mortality, total number of deaths” value ([4]; post-hoc, subjects with baseline CRP <150 mg/L (n=171), vs placebo 9) was 1. The “time to recovery or 28-day all-cause mortality vs placebo” value ([4]; subjects with CRP >150 mg/L (n=30)) was “no difference”, the “adverse events, subjects” value ([5]; 2 of 14 subjects, nasal congestion, epistaxis, considered not related to study drug) was 14.3% and the “safety laboratory measures, electrocardiograms, vital signs, pulse oximetry, spirometry” value ([5]; all administrations) was “no clinically relevant changes”. For the same compound, the “severity of adverse events” value ([5]; all adverse events) was “mild severity”, the “inhibition of IFNγ signaling” value [6] was “shown to inhibit” and the “inhibition of Abl2” value [7] was “potently inhibit”. For the same compound, the “inhibition of IFNγ secretion” value [8] was “effectively inhibit”, the “inhibition of IL-6 signaling” value [9] was “shown to inhibit” and the “absolute NK cell counts relative to baseline” value [10] was “No reductions in NK cells were observed”. The “inhibition of JAK2” value [11] was “potent inhibitor”.
